# Measurements from patent US20260274855A1, “AMORPHOUS FORM OF ISOQUINOLINE DERIVATIVE” (vTv Therapeutics LLC, priority 2020, published 2026).
# Where a name gives a salt, the structure may show the parent alone. Read-outs that look alike come from different tables or passages of the source.
# How the values were obtained:
# Assay type in all cases: physicochemical
# [1] = 3 month stability study at 25° C. ± 2° C. and 60% RH
# Method: A 3-month stability study was conducted at 25° C.±2° C. and 60% relative humidity.
# [2] = 30-day stability study at 60° C.
# Method: A 30-day stability study at 60° C. was conducted on a sample of material obtained from the method of Example 3.
# [3] = Stability study at 40° C. and 100% RH for 7 days
# Method: The stability of crystal form B of OAD2 hydrochloride and the amorphous form of OAD2 dihydrochloride was tested under conditions of 40° C./100% RH for 1 week.
# [4] = Hygroscopicity study, DVS test (25° C., 80% RH)
# Method: Dynamic moisture adsorption (DVS) curves were collected on DVS Intrinsic of Surface Measurement Systems (SMS). The relative humidity at 25° C. was corrected with the deliquescent points of LiCl, Mg(NO3)2 and KCl.
# [5] = Solubility in aqueous solutions at various pH's
# [6] = Dissolution studies, four-part dissolution test method of Chinese Pharmacopoeia (2015 edition)
# Method: Dissolution studies were conducted according to the four-part dissolution test method in the Chinese Pharmacopoeia (2015 edition) in the following solvents: methanol, acetic acid, ethanol, 0.1 mol/L HCl, acetonitrile, and 2-methyltetrahydrofuran. The dissolution study method involves weighing a fine powder (after grinding) of solid test product, attempting to dissolve in a proper volume of solvent by strongly shaking for 30 seconds every 5 minutes for 30 minutes, and recording observations after 30 minutes.
# [7] = Month 0, listed as Ex. 3, dihydrochloride salt
# [8] = Month 0, listed as Ex. 4, dihydrochloride salt
# [9] = Month 0, listed as Ex. 5, dihydrochloride salt
# [10] = Month 1, listed as Ex. 3, dihydrochloride salt
# [11] = Month 1, listed as Ex. 4, dihydrochloride salt
# [12] = Month 1, listed as Ex. 5, dihydrochloride salt
# [13] = Month 2, listed as Ex. 3, dihydrochloride salt
# [14] = Month 2, listed as Ex. 4, dihydrochloride salt
# [15] = Month 2, listed as Ex. 5, dihydrochloride salt
# [16] = Month 3, listed as Ex. 3, dihydrochloride salt
# [17] = Month 3, listed as Ex. 4, dihydrochloride salt
# [18] = Month 3, listed as Ex. 5, dihydrochloride salt
smiles,measurement,setting,value
"CC[C@@H](c1ccccc1)N1Cc2cc3c(cc2C[C@H]1C(=O)N[C@@H](Cc1ccc(-c2ccnc(C)c2C)cc1)C(=O)O)OC[C@H](c1ccc(OCc2ccc(Cl)c(Cl)c2)cc1)O3 [OAD2 dihydrochloride, (S)-2-(3S,8S)-3-(4-(3,4-dichlorobenzyloxy)phenyl-7-((S)-1-phenylpropyl)-2,3,6,7,8,9-hexahydro-[1,4]-dioxino[2,3-g]isoquinolin-8-ylformylamino)-3-(4-(2,3-dimethylpyridin-4-yl)phenyl)propionic acid dihydrochloride salt]",Appearance,[1]; Month 0,Off-white
same,Solid form,[1]; Month 0,Amorphous
same,Moisture Content,[1]; [7],1.7%
same,Percentage of external standard content,[1]; [7],98.1%
same,Purity,[1]; [7],99.30%
same,Moisture Content,[1]; [8],2.5%
same,Percentage of external standard content,[1]; [8],97.1%
same,Purity,[1]; [8],98.7%
same,Moisture Content,[1]; [9],1.6%
same,Percentage of external standard content,[1]; [9],97.1%
same,Purity,[1]; [9],99.03%
same,Appearance,[1]; Month 1,Off-white
same,Solid form,[1]; Month 1,Amorphous
same,Moisture Content,[1]; [10],3.1%
same,Percentage of external standard content,[1]; [10],99.0%
same,Purity,[1]; [10],99.25%
same,Moisture Content,[1]; [11],4.7%
same,Percentage of external standard content,[1]; [11],96.8%
same,Purity,[1]; [11],98.6%
same,Moisture Content,[1]; [12],3.3%
same,Percentage of external standard content,[1]; [12],97.2%
same,Purity,[1]; [12],98.90%
same,Appearance,[1]; Month 2,Off-white
same,Solid form,[1]; Month 2,Amorphous
same,Moisture Content,[1]; [13],3.4%
same,Percentage of external standard content,[1]; [13],98.7%
same,Purity,[1]; [13],99.30%
same,Moisture Content,[1]; [14],3.6%
same,Percentage of external standard content,[1]; [14],97.6%
same,Purity,[1]; [14],98.6%
same,Moisture Content,[1]; [15],4.1%
same,Percentage of external standard content,[1]; [15],97.8%
same,Purity,[1]; [15],98.90%
same,Appearance,[1]; Month 3,Off-white
same,Solid form,[1]; Month 3,Amorphous
same,Moisture Content,[1]; [16],3.7%
same,Percentage of external standard content,[1]; [16],99.8%
same,Purity,[1]; [16],99.23%
same,Moisture Content,[1]; [17],4.8%
same,Percentage of external standard content,[1]; [17],98.2%
same,Purity,[1]; [17],98.5%
same,Moisture Content,[1]; [18],4.5%
same,Percentage of external standard content,[1]; [18],98.7%
same,Purity,[1]; [18],98.90%
same,Appearance,[2]; Day 0,Off-white
same,Moisture Content,[2]; Day 0,1.6%
same,Percentage of external standard content,[2]; Day 0,97.1%
same,Purity,[2]; Day 0,99.03%
same,Solid form,[2]; Day 0,Amorphous
same,Appearance,[2]; Day 5,Off-white
same,Moisture Content,[2]; Day 5,2.7%
same,Percentage of external standard content,[2]; Day 5,99.1%
same,Purity,[2]; Day 5,98.7%
same,Solid form,[2]; Day 5,Amorphous
same,Appearance,[2]; Day 10,Off-white
same,Moisture Content,[2]; Day 10,2.4%
same,Percentage of external standard content,[2]; Day 10,97.5%
same,Purity,[2]; Day 10,98.7%
same,Solid form,[2]; Day 10,Amorphous
same,Appearance,[2]; Day 30,Pale-yellow
same,Moisture Content,[2]; Day 30,2.5%
same,Percentage of external standard content,[2]; Day 30,97.4%
same,Purity,[2]; Day 30,97.7%
same,Solid form,[2]; Day 30,Amorphous
same,Decrease in purity,[3]; 40° C./100% RH for 1 week,no distinct decrease in purity
same,HPLC (area %),[3]; 40° C./100% RH/7 d,97.51 area %
same,HPLC (area %),[3]; Initiation,98.91 area %
same,Moisture adsorption rate,[4],8.3%
same,solubility,[5]; Buffer pH 5,Not detectable
same,solubility,"[5]; aqueous solution, aqueous buffer, thermodynamic from solid, Buffer pH 7, read-out: Solubility",90 µg/mL
same,solubility,"[5]; aqueous solution, aqueous buffer, thermodynamic from solid, Buffer pH 9, read-out: Solubility",50 µg/mL
same,solubility,"[5]; aqueous solution, aqueous buffer, thermodynamic from solid, solvent 0.1 NaOH, read-out: Solubility",17 µg/mL
same,solubility,"[5]; aqueous solution, simulated gastric fluid, thermodynamic from solid, solvent 0.1 HCl, read-out: Solubility",> 51000 µg/mL
same,solubility,"[5]; solvent 0.1 HCl, listed as OAD2 dihydrochloride salt, dihydrochloride salt",>51000 µg/mL
same,Dissolution,"[6]; 0.1 mol/L HCl, about 1 g sample in 9.99 mL, after 30 minutes, listed as 3, dihydrochloride salt",Incomplete
same,Dissolution,"[6]; 0.1 mol/L HCl, about 1 g sample in 9.99 mL, after 30 minutes, listed as 4, dihydrochloride salt",Incomplete
same,Dissolution,"[6]; 0.1 mol/L HCl, about 1 g sample in 9.99 mL, after 30 minutes, listed as 5, dihydrochloride salt",Incomplete
same,Dissolution,"[6]; 0.1 mol/L HCl, about 1 g sample in 9.99 mL, after 30 minutes, listed as amorphous solid of OAD2 dihydrochloride salt, dihydrochloride salt",completely dissolved
same,Dissolution,"[6]; 0.1 mol/L HCl, about 1 g sample in 29.99 mL, after 30 minutes",Complete
same,Dissolution,"[6]; 2-methyl tetrahydrofuran, about 0.01 g sample in 101 mL, after 30 minutes, listed as 3, dihydrochloride salt",Incomplete
same,Dissolution,"[6]; 2-methyl tetrahydrofuran, about 0.01 g sample in 101 mL, after 30 minutes, listed as 4, dihydrochloride salt",Incomplete
same,Dissolution,"[6]; 2-methyl tetrahydrofuran, about 0.01 g sample in 101 mL, after 30 minutes, listed as 5, dihydrochloride salt",Incomplete
same,Dissolution,"[6]; 2-methyl tetrahydrofuran, about 0.01 g sample in 101 mL, after 30 minutes, listed as amorphous solid of OAD2 dihydrochloride salt, dihydrochloride salt",incompletely dissolved
same,Dissolution,"[6]; Acetonitrile, about 0.01 g sample in 101 mL, after 30 minutes, listed as 3, dihydrochloride salt",Incomplete
same,Dissolution,"[6]; Acetonitrile, about 0.01 g sample in 101 mL, after 30 minutes, listed as 4, dihydrochloride salt",Incomplete
same,Dissolution,"[6]; Acetonitrile, about 0.01 g sample in 101 mL, after 30 minutes, listed as 5, dihydrochloride salt",Incomplete
same,Dissolution,"[6]; Acetonitrile, about 0.01 g sample in 101 mL, after 30 minutes, listed as amorphous solid of OAD2 dihydrochloride salt, dihydrochloride salt",incompletely dissolved
same,Dissolution,"[6]; Ethanol, about 1 g sample in 9.99 mL, after 30 minutes, listed as 3, dihydrochloride salt",Incomplete
same,Dissolution,"[6]; Ethanol, about 1 g sample in 9.99 mL, after 30 minutes, listed as 4, dihydrochloride salt",Incomplete
same,Dissolution,"[6]; Ethanol, about 1 g sample in 9.99 mL, after 30 minutes, listed as 5, dihydrochloride salt",Incomplete
same,Dissolution,"[6]; Ethanol, about 1 g sample in 9.99 mL, after 30 minutes, listed as amorphous solid of OAD2 dihydrochloride salt, dihydrochloride salt",completely dissolved
same,Dissolution,"[6]; Ethanol, about 1 g sample in 29.99 mL, after 30 minutes",Complete
same,Dissolution,"[6]; Methanol, about 1 g sample in 9.99 mL, after 30 minutes, listed as 3, dihydrochloride salt",Complete
same,Dissolution,"[6]; Methanol, about 1 g sample in 9.99 mL, after 30 minutes, listed as 4, dihydrochloride salt",Complete
same,Dissolution,"[6]; Methanol, about 1 g sample in 9.99 mL, after 30 minutes, listed as 5, dihydrochloride salt",Complete
same,Dissolution,"[6]; Methanol, about 1 g sample in 9.99 mL, after 30 minutes, listed as amorphous solid of OAD2 dihydrochloride salt, dihydrochloride salt",completely dissolved
same,Dissolution,"[6]; acetic acid, about 10 mL of solvent",completely dissolved
